Read-outs that look alike come from different tables or passages of the source.
Tests used:
Format in all cases: cell-based
[1] = system: PD1-ss+10aa/Gaussia Luciferase; assay: Dox-Induced PD1-ss-Gluc Assay
Method in brief: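 Stable cell line carrying PD1-ss+10aa/Gaussia luciferase cDNA under T-REx (doxycycline-inducible) control, plated the day before assay. Compound dilutions in DMSO/media containing doxycycline added and incubated at 37° C, 5% CO2. Undefined stereocentres: data refer to stereoisomer mixtures.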

[2] = system: HER3-ss+4aa/Gaussia Luciferase; assay: Dox-Induced Her3-ss-Gluc Assay
Method in brief: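 Stable T-REx cell line carrying a doxycycline-regulated HER3-ss+4aa/Gaussia luciferase insert, plated the day before assay. Compound dilutions in DMSO/media with doxycycline added, then incubated at 37° C., 5% CO2. Stereoisomer mixtures tested where stereochemistry is not drawn.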

[3] = system: TNFα-FL/Gaussia Luciferase; assay: Dox Induced TNFα-FL-Gluc Assay
Method in brief: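 A stable T-REx cell line carrying doxycycline-inducible TNFα-FL/Gaussia luciferase was plated the day before assay. Compound dilutions in DMSO/media containing doxycycline were then added and incubated at 37° C, 5% CO2.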

[4] = system: human multiple myeloma cell line U266B1; assay: U266 Cell Viability Assay; conditions: U-266, 48 hr, U266B1 cells, Celltiter-Glo, read-out: 48 hr U266 Viability Celltiter-Glo: Mean EC50
Method in brief: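 U266B1 myeloma cells treated with compound dilutions in DMSO/media for 48 h at 37 °C, 5% CO2. Viability read by CellTiter-Glo luminescence. Stereochemically undefined structures were tested as stereoisomer mixtures.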

[5] = system: human multiple myeloma cell line NCI-H929; assay: H929 Cell Viability Assay; conditions: 48 hr, NCI-H929 cells, Celltiter-Glo, read-out: 48 hr H929 Viability Celltiter-Glo: Mean EC50
Method: Plates were incubated at 37° C., 5% CO2 for 48 hours. After 48 hours, Celltiter-Glo® (Promega) was added to each well and luciferase signal was quantified using Tecan Infinite M1000 Pro for cell viability determination.
For chemical structures that include one or more stereoisomers, but are illustrated without indicating stereochemistry, the assay data refers to a mixture of stereoisomers.

[6] = system: IL-2-FL/Gaussia Luciferase; assay: Dox Induced IL2-FL-Gluc Assay
Method in brief: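 Stable T-REx cell line expressing doxycycline-inducible IL-2-FL/Gaussia luciferase cDNA, plated the day before assay. Compound dilutions in DMSO/media containing doxycycline added and incubated at 37° C., 5% CO2. Unspecified stereochemistry means data refer to a stereoisomer mixture.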

[7] = 24 hr, doxycycline-induced, 293FRT/TO cells; read-out: 24 hr Dox Inducible PD1ssGluc 293FRT/TO: Mean IC50
[8] = 24 hr, doxycycline-induced, 293FRT/TO cells; read-out: 24 hr Dox Inducible Her3(ss + 4)Gluc 293FRT/TO: Mean IC50
[9] = 24 hr, doxycycline-induced, 293FRT/TO cells; read-out: 24 hr Dox Inducible TNFaFLGluc 293FRT/TO: Mean IC50
[10] = 24 hr, doxycycline-induced, 293FRT/TO cells; read-out: 24 hr Dox Inducible IL2FLGIuc 293FRT/TO: Mean IC50
[11] = 24 hr doxycycline induction, 293FRT/TO cells, Gaussia luciferase signal; read-out: 24 hr Dox Inducible PD1ssGluc 293FRT/TO: Mean IC50
[12] = 24 hr doxycycline induction, 293FRT/TO cells, Gaussia luciferase signal; read-out: 24 hr Dox Inducible Her3(ss + 4)Gluc 293FRT/TO: Mean IC50
[13] = 24 hr doxycycline induction, 293FRT/TO cells, Gaussia luciferase signal; read-out: 24 hr Dox Inducible TNFaFLGluc 293FRT/TO: Mean IC50
[14] = 24 hr doxycycline induction, 293FRT/TO cells, Gaussia luciferase signal; read-out: 24 hr Dox Inducible IL2FLGIuc 293FRT/TO: Mean IC50

Compound | IC50 [1, 7] [µM] | IC50 [2, 8] [µM] | IC50 [3, 9] [µM] | EC50 [4] [µM] | EC50 [5] [µM] | IC50 [6, 10] [µM] | IC50 [1, 11] [µM] | IC50 [2, 12] [µM] | IC50 [3, 13] [µM] | IC50 [6, 14] [µM] | IC50 ([1]; read-out: 24 hr Dox Inducible PD1ssGluc 293FRT/TO: Mean IC50; 24 hr, doxycycline-induced, 293FRT/TO cells) [µM] | IC50 ([2]; read-out: 24 hr Dox Inducible Her3(ss + 4)Gluc 293FRT/TO: Mean IC50; 24 hr, doxycycline-induced, 293FRT/TO cells) [µM] | IC50 ([3]; read-out: 24 hr Dox Inducible TNFaFLGluc 293FRT/TO: Mean IC50; 24 hr, doxycycline-induced, 293FRT/TO cells) [µM] | IC50 ([6]; read-out: 24 hr Dox Inducible IL2FLGIuc 293FRT/TO: Mean IC50; 24 hr, doxycycline-induced, 293FRT/TO cells) [µM]
CC(C)(C)c1csc(NC(=O)c2cccn2Cc2ccccc2)n1 [Compound B27, 1-benzyl-N-(4-(tert-butyl)thiazol-2-yl)-1H-pyrrole-2-carboxamide] | > 25 | > 25 | > 25 | > 25 | > 25 | > 25 | – | – | – | – | – | – | – | –
CC(C)(C)c1cc(NC(=O)c2cccn2Cc2ccncc2)no1 [Compound B4, N-(5-(tert-butyl)isoxazol-3-yl)-1-(pyridin-4-ylmethyl)-1H-pyrrole-2-carboxamide] | 3.02 | 11.2 | > 25 | > 25 | > 25 | 22.5 | – | – | – | – | – | – | – | –
CC(C)OC(C)(C)c1csc(NC(=O)c2ccccc2Cc2ccncc2)n1 [Compound A280, N-(4-(2-isopropoxypropan-2-yl)thiazol-2-yl)-2-(pyridin-4-ylmethyl)benzamide] | – | – | – | > 25 | > 25 | – | 12.7 | > 25 | > 25 | > 25 | – | – | – | –
Cc1ccc(C(=O)Nc2nc(C(C)(C)OC(C)C)cs2)n1Cc1ccncc1 [Compound A76, N-(4-(2-isopropoxypropan-2-yl)thiazol-2-yl)-5-methyl-1-(pyridin-4-ylmethyl)-1H-pyrrole-2-carboxamide] | – | – | – | > 25 | > 25 | – | 2.73 | 12.5 | > 25 | 3.99 | – | – | – | –
O=C(Nc1nc(CCc2ccc(Cl)cc2)cs1)c1cccn1Cc1ccncc1 [Compound A180] | – | – | – | 6.46 | 7.18 | – | 0.057 | 0.156 | 0.736 | 0.281 | – | – | – | –
O=C(Nc1nc2c(s1)CCC2)c1cccn1Cc1ccncc1 [Compound A56] | – | – | – | > 25 | > 25 | – | 1.42 | 5.31 | > 25 | 6.47 | – | – | – | –
O=C(Nc1nc(/C=C/c2ccc(OC(F)(F)F)cn2)cs1)c1cccn1Cc1ccncc1 [Compound A327] | 0.016 | 0.469 | 4.49 | > 25 | 15.1 | 0.999 | – | – | – | – | – | – | – | –
CCN(C(=O)c1cccn1Cc1ccncc1)c1nc(C)cs1 [Compound A98] | – | – | – | > 25 | > 25 | – | 19.6 | > 25 | > 25 | > 25 | – | – | – | –
CC(C)OC(C)(C)c1csc(NC(=O)c2cccn2Cc2c(F)cncc2F)n1 [Compound A256, 1-((3,5-difluoropyridin-4-yl)methyl)-N-(4-(2-isopropoxypropan-2-yl)thiazol-2-yl)-1H-pyrrole-2-carboxamide] | – | – | – | > 25 | > 25 | – | 2.15 | 4.04 | > 25 | 2.87 | – | – | – | –
COc1ccc(/C=C/c2csc(NC(=O)c3cccn3Cc3ccncc3)n2)cc1 [Compound A160, N-(4-(4-methoxystyryl)thiazol-2-yl)-1-(pyridin-4-ylmethyl)-1H-pyrrole-2-carboxamide] | – | – | – | > 25 | 9.1 | – | 0.051 | 0.259 | 1.74 | 0.374 | – | – | – | –
CC(C)OC(C)(C)c1csc(NC(=O)c2cncn2Cc2ccncc2)n1 [Compound A104, N-(4-(2-isopropoxypropan-2-yl)thiazol-2-yl)-1-(pyridin-4-ylmethyl)-1H-imidazole-5-carboxamide] | – | – | – | > 25 | > 25 | – | > 25 | > 25 | > 25 | > 25 | – | – | – | –
COc1cnccc1Cn1cccc1C(=O)Nc1nc(C(C)(C)OC(C)C)cs1 [Compound A211, N-(4-(2-isopropoxypropan-2-yl)thiazol-2-yl)-1-((3-methoxypyridin-4-yl)methyl)-1H-pyrrole-2-carboxamide] | – | – | – | > 25 | > 25 | – | 10 | > 25 | > 25 | 8.31 | – | – | – | –
CC(C)(C)[Si](O[C@@H]1CCN(c2ccccc2)[C@@H]1c1csc(NC(=O)c2cccn2Cc2ccncc2)n1)(c1ccccc1)c1ccccc1 [Compound A352] | – | – | – | > 25 | 0.452 | – | – | – | – | – | 0.008 | 0.019 | 0.062 | 0.016

Second part, led by results:

IC50 [1, 7] [µM] | IC50 [2, 8] [µM] | IC50 [3, 9] [µM] | EC50 [4] [µM] | EC50 [5] [µM] | IC50 [6, 10] [µM] | IC50 [1, 11] [µM] | IC50 [2, 12] [µM] | IC50 [3, 13] [µM] | IC50 [6, 14] [µM] | Compound | IC50 ([1]; read-out: 24 hr Dox Inducible PD1ssGluc 293FRT/TO: Mean IC50; 24 hr, doxycycline-induced, 293FRT/TO cells) [µM] | IC50 ([2]; read-out: 24 hr Dox Inducible Her3(ss + 4)Gluc 293FRT/TO: Mean IC50; 24 hr, doxycycline-induced, 293FRT/TO cells) [µM] | IC50 ([3]; read-out: 24 hr Dox Inducible TNFaFLGluc 293FRT/TO: Mean IC50; 24 hr, doxycycline-induced, 293FRT/TO cells) [µM] | IC50 ([6]; read-out: 24 hr Dox Inducible IL2FLGIuc 293FRT/TO: Mean IC50; 24 hr, doxycycline-induced, 293FRT/TO cells) [µM]
6.66 | > 25 | > 25 | > 25 | > 25 | > 25 | – | – | – | – | O=C(Nc1nccs1)c1cccn1Cc1ccncc1 [Compound B6] | – | – | – | –
– | – | – | > 25 | 17.7 | – | 0.098 | 8.4 | 23.7 | 6.77 | O=C(Nc1nc(/C=C/c2ccccn2)cs1)c1cccn1Cc1ccncc1 [Compound A164] | – | – | – | –
0.218 | 0.475 | 3.92 | > 25 | 19.2 | 1.02 | – | – | – | – | O=C(Nc1nc([C@H]2C[C@@H](Oc3ccccc3)C2)cs1)c1cccn1Cc1ccncc1 [Compound A330] | – | – | – | –
– | – | – | > 25 | 10.9 | – | 0.478 | 0.974 | 4.61 | 0.95 | CC(C)(COc1ccccn1)c1csc(NC(=O)c2cccn2Cc2ccncc2)n1 [Compound A260] | – | – | – | –
– | – | – | > 25 | > 25 | – | 1.14 | 4.2 | > 25 | 4.97 | O=C(Nc1nc([C@H]2CCN(Cc3ccccc3)C2)cs1)c1cccn1Cc1ccncc1 [Compound A279] | – | – | – | –
– | – | – | > 25 | > 25 | – | 0.445 | 0.822 | 9.53 | 0.32 | CCOC(C)(C)c1csc(NC(=O)c2cccn2Cc2ccncc2)n1 [Compound A27, N-(4-(2-ethoxypropan-2-yl)thiazol-2-yl)-1-(pyridin-4-ylmethyl)-1H-pyrrole-2-carboxamide] | – | – | – | –
0.679 | 8.81 | > 25 | > 25 | > 25 | > 25 | – | – | – | – | O=C(Nc1nc(/C=C/c2ncccn2)cs1)c1cccn1Cc1ccncc1 [Compound A307] | – | – | – | –
0.364 | 1.26 | 6.62 | > 25 | 12.5 | 1.7 | – | – | – | – | O=C(Nc1nc([C@H]2C[C@@H](c3ccccn3)C2)cs1)c1cccn1Cc1ccncc1 [Compound A349] | – | – | – | –
– | – | – | 24.5 | 7.61 | – | 0.059 | 0.305 | 2.47 | 0.652 | O=C(Nc1nc(/C=C/c2ccc(Cl)cc2)cs1)c1cccn1Cc1ccncc1 [Compound A163, N-(4-(4-chlorostyryl)thiazol-2-yl)-1-(pyridin-4-ylmethyl)-1H-pyrrole-2-carboxamide] | – | – | – | –
0.175 | 0.51 | 3.33 | 6.23 | 6.02 | 0.874 | – | – | – | – | COc1ccc([C@@H]2C[C@H]2c2csc(NC(=O)c3cccn3Cc3ccncc3)n2)nc1 [Compound A311] | – | – | – | –
0.524 | 3.81 | 9.74 | 17.2 | 22.3 | 11.3 | – | – | – | – | Cc1cccc(/C=C\c2csc(NC(=O)c3cccn3Cc3ccncc3)n2)n1 [Compound A355] | – | – | – | –
